≈ marks a conversion by molar mass, not a printed value. Calls of active or inactive are those of the source. No cut-off for these calls is given here.
Key:
[1] = system: Cryptococcus neoformans; assay: Antimicrobial activity against Cryptococcus neoformans ATCC 208821 assessed as microbial growth inhibition incubated for 36 hrs by resazurin dye based assay; format: functional
[2] = system: Clostridioides difficile; assay: Antimicrobial activity against Clostridium difficile assessed as microbial growth inhibition incubated for 18 hrs; format: functional
[3] = system: Acinetobacter baumannii; assay: Antimicrobial activity against Acinetobacter baumannii ATCC 19603 assessed as microbial growth inhibition incubated for 18 hrs; format: functional
[4] = system: Clostridioides difficile; assay: Anti-sporulation activity against Clostridium difficile M7404 assessed as fold reduction in spore count incubated overnight by absorbance based assay relative to control; format: functional
[5] = system: Erythrocyte; assay: Hemolytic activity in human RBC incubated for 70 mins by absorbance based assay; format: toxicity, cell-based; conditions: 1.167 h
[6] = Inhibition of Clostridium difficile SpoVD using Boc-FL as substrate preincubated for 30 mins followed by substrate addition measured after 30 mins by FP assay; design: species or system Clostridioides difficile
[7] = system: Klebsiella pneumoniae; assay: Antimicrobial activity against multidrug-resistant Klebsiella pneumoniae ATCC 700603 assessed as microbial growth inhibition incubated for 18 hrs; format: functional
[8] = system: Candida albicans; assay: Antimicrobial activity against Candida albicans ATCC 90028 assessed as microbial growth inhibition incubated for 36 hrs by resazurin dye based assay; format: functional
[9] = Cytotoxicity against HEK293 cells incubated for 20 hrs by resazurin dye based assay; format: toxicity, cell-based; conditions: human
[10] = system: Escherichia coli; assay: Antimicrobial activity against Escherichia coli ATCC 25922 assessed as microbial growth inhibition incubated for 18 hrs; format: functional
[11] = system: Pseudomonas aeruginosa; assay: Antimicrobial activity against Pseudomonas aeruginosa ATCC 27853 assessed as microbial growth inhibition incubated for 18 hrs; format: functional
[12] = system: Staphylococcus aureus; assay: Antimicrobial activity against methicillin-resistant Staphylococcus aureus ATCC 43300 assessed as microbial growth inhibition incubated for 18 hrs; format: functional
[13] = system: Clostridioides difficile; assay: Anti-sporulation activity against Clostridium difficile M7404 infected in C57BL/6J mouse model assessed as reduction in spore shedding in faeces at 50 ug/ml pre-infected for 6 hrs followed by compound treatment measured for 2 to 4 days post-infection; format: functional, organism-based; conditions: dose 50.0 µg/ml, time 42-90 hrs

Structure (SMILES)	MIC50 [1]	MIC50 [2]	MIC50 [3]	fold change (FC) [4]	HC10 [5]	IC50 [6]	MIC50 [7]	MIC50 [8]	CC50 at 20 h [9]	MIC50 [10]	MIC50 [11]	MIC50 [12]	Activity [13]
CO[C@@]1(NC(=O)Cn2cc(-c3ccc4ccccc4c3)nn2)C(=O)N2C(C(=O)O)=C(CSc3nnnn3C)CS[C@@H]21	> 32 µg/mL	20 µg/mL (≈ 33.7 µM)	> 32 µg/mL	>100000	> 32 µg/mL	54 nM	> 32 µg/mL	> 32 µg/mL	> 32 µg/mL	> 32 µg/mL	> 32 µg/mL	32 µg/mL (≈ 53.9 µM)	
CO[C@@]1(NC(=O)Cn2cc(CO)nn2)C(=O)N2C(C(=O)O)=C(CSc3nnnn3C)CS[C@@H]21	> 32 µg/mL	10 µg/mL (≈ 20.1 µM)	> 32 µg/mL	10	> 32 µg/mL	369 nM	16 µg/mL (≈ 32.2 µM)	> 32 µg/mL	> 32 µg/mL	16 µg/mL (≈ 32.2 µM)	> 32 µg/mL	32 µg/mL (≈ 64.3 µM)	
CO[C@@]1(NC(=O)Cn2cc(-c3cccc4cccnc34)nn2)C(=O)N2C(C(=O)O)=C(CSc3nnnn3C)CS[C@@H]21	> 32 µg/mL	> 40 µg/mL	> 32 µg/mL	100	> 32 µg/mL	472 nM	> 32 µg/mL	> 32 µg/mL	> 32 µg/mL	> 32 µg/mL	> 32 µg/mL	32 µg/mL (≈ 53.8 µM)	
CO[C@@]1(NC(=O)Cn2cc(-c3ccccc3)nn2)C(=O)N2C(C(=O)O)=C(CSc3nnnn3C)CS[C@@H]21	> 32 µg/mL	5 µg/mL (≈ 9.2 µM)	> 32 µg/mL	>100000	> 32 µg/mL	89 nM	32 µg/mL (≈ 58.9 µM)	> 32 µg/mL	> 32 µg/mL	32 µg/mL (≈ 58.9 µM)	> 32 µg/mL	32 µg/mL (≈ 58.9 µM)	Active
CO[C@@]1(NC(=O)Cn2cc(C(C)(C)O)nn2)C(=O)N2C(C(=O)O)=C(CSc3nnnn3C)CS[C@@H]21	> 32 µg/mL	40 µg/mL (≈ 76.1 µM)	> 32 µg/mL	100	17 µg/mL		32 µg/mL (≈ 60.9 µM)	> 32 µg/mL	0.7 µg/mL (≈ 1.33 µM)	32 µg/mL (≈ 60.9 µM)	> 32 µg/mL	32 µg/mL (≈ 60.9 µM)	
COc1ccc(-c2cn(CC(=O)N[C@]3(OC)C(=O)N4C(C(=O)O)=C(CSc5nnnn5C)CS[C@@H]43)nn2)cc1	> 32 µg/mL	10 µg/mL (≈ 17.4 µM)	> 32 µg/mL	100	> 32 µg/mL	> 15000 nM	> 32 µg/mL	> 32 µg/mL	> 32 µg/mL	32 µg/mL (≈ 55.8 µM)	> 32 µg/mL	32 µg/mL (≈ 55.8 µM)	
CO[C@@]1(NC(=O)Cn2cc(-c3ccc(C#N)cc3)nn2)C(=O)N2C(C(=O)O)=C(CSc3nnnn3C)CS[C@@H]21	> 32 µg/mL	> 40 µg/mL	> 32 µg/mL	>100000	> 32 µg/mL	72 nM	> 32 µg/mL	> 32 µg/mL	> 32 µg/mL	32 µg/mL (≈ 56.3 µM)	> 32 µg/mL	> 32 µg/mL	
